From patent publication US10821115B2, “Compounds that inhibit Mcl-1 protein” (priority 2017, dated 2020)
Read-outs that look alike come from different tables or passages of the source.

Legend:
[1] = test system: human multiple myeloma cell line, OPM-2; assay: Cell viability assay (OPM-2 10 FBS), CellTiter-Glo; format: cell-based
Summary of the method: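 Serially diluted test compounds are incubated 16 h with cells (3000/well) in RPMI 1640 supplemented with 10% FBS. Viability is then measured by luminescence and IC50 calculated by 4-parameter logistic fit.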

[2] = molecular target: recombinant human Mcl-1 (residues 171-327) / Bim interaction (Homo sapiens (Human), UniProt Q07820); assay: biochemical; format: binding; details: read-out: Mcl-1 HTRF IC50
Sequence of recombinant human Mcl-1 (residues 171-327) / Bim interaction (Q07820 171-327): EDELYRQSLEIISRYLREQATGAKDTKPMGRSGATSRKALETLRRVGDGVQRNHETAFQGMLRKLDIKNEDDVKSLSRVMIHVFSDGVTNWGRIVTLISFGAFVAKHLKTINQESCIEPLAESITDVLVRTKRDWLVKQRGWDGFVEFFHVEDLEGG

[3] = Homo sapiens, OPM-2, 16 h, read-out: OPM-2 10% FBS IC50 IP, OPM-2 cells, 10% FBS, 16 h, CellTiter-Glo
[4] = TR-FRET, Mcl-1(171-327) / biotin-Bim (51-76)
[5] = read-out: OPM-2 10% FBS IC50 IP, OPM-2 cells, 10% FBS, 16 h, CellTiter-Glo

Structure (SMILES) | IC50 [1, 3] | IC50 [2, 4] | IC50 [1, 5] | IC50 [2]
C[C@@H]1[C@@H](C)C/C=C/[C@](O)(C2SCCCS2)[C@@H]2CC[C@H]2CN2C[C@@]3(CCCc4cc(Cl)ccc43)COc3ccc(cc32)C(=O)NS1(=O)=O [Example 100259, (1S,3′R,6′R,7′R,8′E,11′S,12′R)-6-chloro-7′-(1,3-dithian-2-yl)-7′-hydroxy-11′,12′-dimethyl-3,4-dihydro-2H,15′H-spiro[naphthalene-1,22′-[20]oxa[13]thia[1,14]diazatetracyclo [14.7.2.0~3,6~.0~19,24~]pentacosa[8,16,18,24]tetraen]-15′-one 13′,13′-dioxide] | 1.25 µM | 0.00618 µM | – | –
C[C@@H]1[C@@H](C)C/C=C/[C@@](O)(C2SCCCS2)[C@@H]2CC[C@H]2CN2C[C@@]3(CCCc4cc(Cl)ccc43)COc3ccc(cc32)C(=O)NS1(=O)=O [Example 100260, (1S,3′R,6′R,7′S,8′E,11′S,12′R)-6-chloro-7′-(1,3-dithian-2-yl)-7′-hydroxy-11′,12′-dimethyl-3,4-dihydro-2H,15′H-spiro[naphthalene-1,22′-[20]oxa[13]thia[1,14]diazatetracyclo [14.7.2.0~3,6~.0~19,24~]pentacosa[8,16,18,24]tetraen]-15′-one 13′,13′-dioxide] | 0.094 µM | 0.000408 µM | – | –
CO[C@@]1(C2SCCCS2)/C=C/C[C@H](C)[C@@H](C)S(=O)(=O)NC(=O)c2ccc3c(c2)N(C[C@@H]2CC[C@H]21)C[C@@]1(CCCc2cc(Cl)ccc21)CO3 [Example 100261, (1S,3′R,6′R,7′S,8′E,11′S,12′R)-6-chloro-7′-(1,3-dithian-2-yl)-7′-methoxy-11′,12′-dimethyl-3,4-dihydro-2H,15′H-spiro[naphthalene-1,22′-[20]oxa[13]thia[1,14]diazatetracyclo [14.7.2.0~3,6~.0~19,24~]pentacosa[8,16,18,24]tetraen]-15′-one 13′,13′-dioxide] | 0.533 µM | 0.00122 µM | – | –
CC(=O)N[C@@]1(C#N)CCC[C@H](C)[C@@H](C)S(=O)(=O)NC(=O)c2ccc3c(c2)N(C[C@@H]2CC[C@H]21)C[C@@]1(CCCc2cc(Cl)ccc21)CO3 [Example 100263, N-((1S,3′R,6′R,7′S,11′S,12′R)-6-chloro-7′-cyano-11′,12′-dimethyl-13′,13′-dioxido-15′-oxo-3,4-dihydro-2H-spiro[naphthalene-1,22′-[20]oxa[13]thia[1,14]diazatetracyclo [14.7.2.0~3,6~.0~19,24~]pentacosa[16,18,24]trien]-7′-yl)acetamide] | 3.39 µM | 0.00183 µM | – | –
C[C@@H]1[C@@H](C)C/C=C/[C@@]2(COCCO2)[C@@H]2CC[C@H]2CN2C[C@@]3(CCCc4cc(Cl)ccc43)COc3ccc(cc32)C(=O)NS1(=O)=O [Example 100264, (2S,3′R,6′R,8′E,11′S,12′R,22′S)-6″-chloro-11′,12′-dimethyl-3″,4″-dihydro-2″H,15′H-dispiro[1,4-dioxane-2,7′-[20]oxa[13]thia[1,14]diazatetracyclo [14.7.2.0~3,6~.0~19,24~]pentacosa[8,16,18,24]tetraene-22′,1″-naphthalen]-15′-one 13′,13′-dioxide] | – | 0.000384 µM | 0.6 µM | –
CC(=O)N[C@@]1(CO)CCC[C@H](C)[C@@H](C)S(=O)(=O)NC(=O)c2ccc3c(c2)N(C[C@@H]2CC[C@H]21)C[C@@]1(CCCc2cc(Cl)ccc21)CO3 [Example 100265, N-((1S,3′R,6′R,7′S,11′S,12′R)-6-chloro-7′-(hydroxymethyl)-11′,12′-dimethyl-13′,13′-dioxido-15′-oxo-3,4-dihydro-2H-spiro[naphthalene-1,22′-[20]oxa[13]thia[1,14]diazatetracyclo [14.7.2.0~3,6~.0~19,24~]pentacosa[16,18,24]trien]-7′-yl)acetamide] | 0.441 µM | 0.000439 µM | – | –
CC#C[C@]1(O)CCC[C@H](C)[C@@H](C)S(=O)(=O)NC(=O)c2ccc3c(c2)N(C[C@@H]2CC[C@H]21)C[C@@]1(CCCc2cc(Cl)ccc21)CO3 [Example 100267, (1S,3′R,6′R,7′S,11′S,12′R)-6-chloro-7′-hydroxy-11′,12′-dimethyl-7′-(1-propyn-1-yl)-3,4-dihydro-2H,15′H-spiro[naphthalene-1,22′-[20]oxa[13]thia[1,14]diazatetracyclo [14.7.2.0~3,6~.0~19,24~]pentacosa[16,18,24]trien]-15′-one 13′,13′-dioxide] | – | – | 0.274 µM | 0.000166 µM
CC#C[C@]1(O)CCC[C@H](C)[C@@H](C)S(=O)(=O)NC(=O)c2ccc3c(c2)N(C[C@@H]2CC[C@H]21)C[C@@]1(CCCc2cc(Cl)ccc21)CO3 [Example 100268, (1S,3′R,6′R,7′S,11′S,12′R)-6-chloro-7′-hydroxy-11′,12′-dimethyl-7′-(1-propyn-1-yl)-3,4-dihydro-2H,15′H-spiro[naphthalene-1,22′-[20]oxa[13]thia[1,14]diazatetracyclo [14.7.2.0~3,6~.0~19,24~]pentacosa[16,18,24]trien]-15′-one 13′,13′-dioxide] | – | – | 3.81 µM | 0.00344 µM
C[C@@H]1[C@@H](C)CCC[C@@]2(COCCN2)[C@@H]2CC[C@H]2CN2C[C@@]3(CCCc4cc(Cl)ccc43)COc3ccc(cc32)C(=O)NS1(=O)=O [Example 100269, (1S,3′R,6′R,7′S,11′S,12′R)-6-chloro-11′,12′-dimethyl-3,4-dihydro-2H,15′H-dispiro[naphthalene-1,22′-[20]oxa[13]thia[1,14]diazatetracyclo [14.7.2.0~3,6~.0~19,24~]pentacosa[16,18,24]triene-7′,3″-[1,4]oxazinan]-15′-one 13′,13′-dioxide] | 1.23 µM | 0.000908 µM | – | –
C[C@@H]1[C@@H](C)CCC[C@@](O)(COS(C)(=O)=O)[C@@H]2CC[C@H]2CN2C[C@@]3(CCCc4cc(Cl)ccc43)COc3ccc(cc32)C(=O)NS1(=O)=O [Example 100271, ((1S,3′R,6′R,7′S,11′S,12′R)-6-chloro-7′-hydroxy-11′,12′-dimethyl-13′,13′-dioxido-15′-oxo-3,4-dihydro-2H-spiro[naphthalene-1,22′-[20]oxa[13]thia[1,14]diazatetracyclo [14.7.2.0~3,6~.0~19,24~]pentacosa[16,18,24]trien]-7′-yl)methyl methanesulfonate] | – | – | 6.12 µM | 0.00248 µM
CC(=O)N[C@@]1(CN2CCOCC2)CCC[C@H](C)[C@@H](C)S(=O)(=O)NC(=O)c2ccc3c(c2)N(C[C@@H]2CC[C@H]21)C[C@@]1(CCCc2cc(Cl)ccc21)CO3 [Example 100272, N-((1S,3′R,6′R,7′S,11′S,12′R)-6-chloro-11′,12′-dimethyl-7′-(4-morpholinylmethyl)-13′,13′-dioxido-15′-oxo-3,4-dihydro-2H-spiro[naphthalene-1,22′-[20]oxa[13]thia[1,14]diazatetracyclo [14.7.2.0~3,6~.0~19,24~]pentacosa[16,18,24]trien]-7′-yl)acetamide] | 0.349 µM | 0.000401 µM | – | –
C[C@@H]1[C@@H](C)C/C=C/[C@@](O)(c2ncccn2)[C@@H]2CC[C@H]2CN2C[C@@]3(CCCc4cc(Cl)ccc43)COc3ccc(cc32)C(=O)NS1(=O)=O [Example 100275, (1S,3′R,6′R,7′S,8′E,11′S,12′R)-6-chloro-7′-hydroxy-11′,12′-dimethyl-7′-(2-pyrimidinyl)-3,4-dihydro-2H,15′H-spiro[naphthalene-1,22′-[20]oxa[13]thia[1,14]diazatetracyclo [14.7.2.0~3,6~.0~19,24~]pentacosa[8,16,18,24]tetraen]-15′-one 13′,13′-dioxide] | 0.309 µM | 0.000113 µM | – | –
CO[C@]1(c2ncccn2)CCC[C@H](C)[C@@H](C)S(=O)(=O)NC(=O)c2ccc3c(c2)N(C[C@@H]2CC[C@H]21)C[C@@]1(CCCc2cc(Cl)ccc21)CO3 [Example 100276, (1S,3′R,6′R,7′R,11′S,12′R)-6-chloro-7′-methoxy-11′,12′-dimethyl-7′-(2-pyrimidinyl)-3,4-dihydro-2H,15′H-spiro[naphthalene-1,22′-[20]oxa[13]thia[1,14]diazatetracyclo [14.7.2.0~3,6~.0~19,24~]pentacosa[16,18,24]trien]-15′-one 13′,13′-dioxide] | 1.53 µM | 0.000326 µM | – | –
COCCN(C)C(=O)C[C@]1(O)/C=C/C[C@H](C)[C@@H](C)S(=O)(=O)NC(=O)c2ccc3c(c2)N(C[C@@H]2CC[C@H]21)C[C@@]1(CCCc2cc(Cl)ccc21)CO3 [Example 100277, 2-((1S,3′R,6′R,7′S,8′E,11′S,12′R)-6-chloro-7′-hydroxy-11′,12′-dimethyl-13′,13′-dioxido-15′-oxo-3,4-dihydro-2H-spiro[naphthalene-1,22′-[20]oxa[13]thia[1,14]diazatetracyclo [14.7.2.0~3,6~.0~19,24~]pentacosa[8,16,18,24]tetraen]-7′-yl)-N-(2-methoxyethyl)-N-methylacetamide] | 0.448 µM | 0.000266 µM | – | –
CO[C@]1(c2ncccn2)/C=C/C[C@H](C)[C@@H](C)S(=O)(=O)NC(=O)c2ccc3c(c2)N(C[C@@H]2CC[C@H]21)C[C@@]1(CCCc2cc(Cl)ccc21)CO3 [Example 100278, (1S,3′R,6′R,7′R,8′E,11′S,12′R)-6-chloro-7′-methoxy-11′,12′-dimethyl-7′-(2-pyrimidinyl)-3,4-dihydro-2H,15′H-spiro[naphthalene-1,22′-[20]oxa[13]thia[1,14]diazatetracyclo [14.7.2.0~3,6~.0~19,24~]pentacosa[8,16,18,24]tetraen]-15′-one 13′,13′-dioxide] | 0.333 µM | 0.000458 µM | – | –
C[C@@H]1[C@@H](C)CCC[C@](O)(c2ncccn2)[C@@H]2CC[C@H]2CN2C[C@@]3(CCCc4cc(Cl)ccc43)COc3ccc(cc32)C(=O)NS1(=O)=O [Example 100279, (1S,3′R,6′R,7′R,11′S,12′R)-6-chloro-7′-hydroxy-11′,12′-dimethyl-7′-(2-pyrimidinyl)-3,4-dihydro-2H,15′H-spiro[naphthalene-1,22′-[20]oxa[13]thia[1,14]diazatetracyclo [14.7.2.0~3,6~.0~19,24~]pentacosa[16,18,24]trien]-15′-one 13′,13′-dioxide] | – | – | 3.25 µM | 0.000777 µM
